Results: patent publication US20150141340A1, “METHOD OF TREATING AND PREVENTING OCULAR ANGIOGENESIS” (Yale University, priority 2012, published 2015)

What was measured:
[1] = tested on: choroidal neovascularization (CNV); assay: Laser-induced choroidal neovascularization (CNV) model, isolectin b4 labeling; assay type: in vivo, mice
Description: Experiments were designed to examine whether treatment with cavtratin is useful in disease models of excessive ocular angiogenesis. To induce choroidal neovascularization (CNV), a model for retinal angiogenesis in mice, three 532 nm diode laser spots were applied to each fundus of the eye using a coverslip as a contact lens. The lesions were placed between the retinal vessels 2-3 disc diameters from the optic nerve. Formation of a bubble indicates rupture of the Bruch's membrane, a critical factor in driving CNV. Cavtratin was dissolved into acetic acid and diluted into saline. […] After treatment and injury, CNV was visualized by immunofluorescent labeling with isolectin b4, a marker for angiogenic blood vessels. CNV area was quantified as isolectin positive vessels per area measured.
Since mechanistically cavtratin reduces vascular permeability, vascular leakage was examined after CNV damage.
Further, it was examined whether the effects of cavtratin treatment synergizes with anti-VEGF. Mice were injected with either cavtratin (0.05 nmol) one day prior to laser damage, anti-VEGF (5 μg) 2 days after damage, or were treated with both cavtratin and anti-VEGF.

[2] = tested on: ischemia triggered neovascularization; assay: Retinopathy of prematurity model (ROP); assay type: in vivo, mouse; details: administration 2 days after switching from hyperoxia to room air; vs AP injected eyes
Description: Next, cavtratin was tested in an additional model of ocular angiogenesis, retinopathy of prematurity model (ROP). Exposure to hyperoxia during early retinal development leads to the arrest or retardation of normal retinal vascular development. When the animals are returned to the normoxic environment, they are under a relative hypoxic situation where the retina now lacks its normal vasculature that is required to adequately support the neural tissue in normoxic conditions. This ischemic situation results in unregulated, abnormal neovascularization. The neovascular response is very consistent, reproducible and quantifiable, and it has become integral model for studying disease mechanisms and potential treatments for ischemic retinopathy. The mouse ROP model has become the most common model for studying pathologic angiogenesis and has been extended to the general study of ischemic retinopathies and related anti-angiogenic treatments. […] Cavtratin induced attenuation of ischemia triggered neovascularization is shown in FIG. 8, where the left panels are representative of two AP injected eyes and right panels are from cavtratin injections.

cavtratin: fusion peptide comprising an antennapedia homeodomain internalization sequence fused to a caveolin-1 scaffolding domain; SEQ ID NO: 13 (RQIKIWFQNRRMKWKKDGIWKASFTTFTVTKYWFYR; Antennapedia-caveolin-1 scaffolding domain fusion peptide)
CNV area (isolectin positive vessels per area measured) ([1]; 0.5 nmol intraocular (1 microliter) prior to laser damage and again 2 days after, sacrificed after 4 additional days, vs AP control, N=17-18 eyes, P<0.05): reduced CNV | CNV, dose dependence ([1]; anti-VEGF administration as comparator (FIG. 3, FIG. 4), reduced to a level comparable to anti-VEGF): dose-dependently reduces CNV | ischemia triggered neovascularization [2]: attenuation of extensive, ischemia triggered neovascualization
